In patent US11660328B2, “GLP-2 analogs and peptibodies for administration before, during or after surgery” (TAKEDA PHARMACEUTICAL COMPANY LIMITED, priority 2017, dated 2023):

Test system: small intestine
Assay: Histology study of villi length and crypt depth (H&E sections, imagescope)
Assay type: in vivo, female CD-1 mice
Conditions: after administration vs without treatment, FIGS. 1-3; for villus height: small intestine
Experimental: Various doses of GLP-2 peptibody B264 were analyzed to assess the pharmacodynamic plateau, with the primary endpoint a measurement of the small intestinal weight relative to the total body weight and a histology study of the length of villi. 11 groups of six female CD-1 mice each were formed. [table] For histology, four micron paraffin sections were prepared for H&E and Ki67 IHC staining. After whole slide scanning, an imagescope was used to measure villi length and crypt depth, and to analyze Ki67. The antibody against Ki67 is a rabbit antibody sold by Adcam®, catalog number ab 616667. The antibody was used at a working concentration of 1:100 and was detected using a Leica® Refine Kit. […] See, e.g., Example 13 of U.S. Provisional Application No. 62/548,601, filed Aug. 22, 2017 for more data and examples with respect to GLP-2 peptibody B264, GLP-2 peptibody […], and a GLP-2[[…]] peptide.

CC[C@H](C)[C@H](NC(=O)[C@H](Cc1ccccc1)NC(=O)[C@H](CC(=O)O)NC(=O)[C@H](CCCNC(=N)N)NC(=O)[C@H](C)NC(=O)[C@H](C)NC(=O)[C@H](CC(C)C)NC(=O)[C@H](CC(N)=O)NC(=O)[C@H](CC(=O)O)NC(=O)[C@H](CC(C)C)NC(=O)[C@@H](NC(=O)[C@@H](NC(=O)[C@H](CC(N)=O)NC(=O)[C@H](CCSC)NC(=O)[C@H](CCC(=O)O)NC(=O)[C@H](CC(=O)O)NC(=O)[C@H](CO)NC(=O)[C@H](Cc1ccccc1)NC(=O)[C@H](CO)NC(=O)CNC(=O)[C@H](CC(=O)O)NC(=O)CNC(=O)[C@@H](N)Cc1c[nH]cn1)[C@@H](C)O)[C@@H](C)CC)C(=O)N[C@@H](CC(N)=O)C(=O)N[C@@H](Cc1c[nH]c2ccccc12)C(=O)N[C@@H](CC(C)C)C(=O)N[C@H](C(=O)N[C@@H](CCC(N)=O)C(=O)N[C@H](C(=O)N[C@@H](CCCCN)C(=O)N[C@H](C(=O)N[C@H](C(=O)N[C@@H](CC(=O)O)C(=O)O)[C@@H](C)O)[C@@H](C)CC)[C@@H](C)O)[C@@H](C)CC [h(Gly2)GLP-2, teduglutide, reference compound]
crypt depth in the small intestine: increased crypt depth
villus height: increased villus height

GLP-2 peptibody K274: GLP-2 peptibody having the amino acid sequence of SEQ ID NO: 4 (GLP-2[A2G]-linker-IgG1 Fc fusion)
crypt depth in the small intestine: increased crypt depth
villus height: increased villus height
